Patent publication US20100081718A1, “CO[…]-2-DELTA LIGANDS” (Pfizer Inc, priority 2003, published 2010)
Counter-ions that a name gives are not always drawn.

Legend:
[1] = Plasma concentration (Cmax) of gabapentin in the rat

| SMILES | melting point | Cmax [1] |
| --- | --- | --- |
| CCC[C@@H](C)C[C@H](N)CC(=O)O.Cl | 142.5 to 142.7 °C | – |
| CCCC[C@@H](C)C[C@H](N)CC(=O)O (as salt: hydrochloride) | 142.5 to 143.3 °C | – |
| NCC1(CC(=O)O)CCCCC1 [gabapentin, 1-(aminomethyl)-cyclohexylacetic acid] | – | 520 to 10500 ng/mL |
